Read-outs that look alike come from different tables or passages of the source.
Experiments:
[1] = test system: human lymphoblastic leukemic T-cell growth; test: Cytotoxic activity relative to stability during storage at −20° C. in DMSO (Table 10); type: cell-based; settings: Homo sapiens, CCRF-CEM, 72 h, Table 10, XTT, 72 hr
From the text: Without wishing to be bound by theory, the oxidized versions may be active metabolites. This theory provides an explanation of the delayed onset of therapeutic effects seen in the figures herein. The oxidized compounds may be active agents that are formed slowly upon metabolic oxidation. […] The active metabolites may explain the biphasic pharmacological properties of panaxytriol or Compound D that have been observed (FIGS. 9B, C, D; FIGS. 11D, E, F, and FIGS. 12D, E). […] Induction of the phase 2 enzymes may slow oxidation of the compounds (Ng et al., Tetrahedron Letters. 49: 7178-7179 (2008)).

[2] = test system: CCRF-CEM/VBL100 vinblastine-resistant cells; test: In vitro cytotoxicity against vinblastine-resistant CCRF-CEM subline; type: cell-based, human; settings: for IC50: Homo sapiens, CCRF-CEM
Description: (§1) The cytotoxicity IC50 of each compound was measured with the XTT assay using the 2,3-bis(2-methoxy-4-nitro-5-sulfophenyl)-5-[(phenylamino)carbonyl]-2H-tetrazolium hydroxide (XTT) microculture method as described in Scudiero et al., Cancer Res., 48:4827 (1988), the contents of which are hereby incorporated by reference in their entirety. The CCK-8 assay is a cell counting kit-8 (CCK-8) tetrazolium assay using a 96-well microplate (Dojindo Molecular Technologies, Inc., Rockville, Md.) (M. Ishiyama et al., Biol. Pharm. Bull. 19: 1518, 1996). Absorbance was measured by Powerwave a XS microplate spectrophotometer. This method described is considered a general method in vitro cytotoxicity studies.
(§2) The data in Tables 2X, 3A-E, 4, 5, and 6 were obtained using the cell counting kit-8 (CCK-8) tetrazolium assay in a 96-well microplate. Five to seven concentrations of each compound in triplicate were used, and the IC50 values were determined by CompuSyn software automation (Chou T C. and Martin N. ComboSyn, Inc., 2006) based on the median-effect equation and plot (Chou T C. J. Theor. Biol. 59:235-276, 1976; Chou T C. Pharmacol. Rev. 58: 621-681, 2006). […] The r value defines the correlation coefficient of the median-effect plot which signifies the conformity to the mass-action law principle (Chou T C. J. Theor. Biol. 59:235-276, 1976; Chou T C. Pharmacol. Rev. 58:621-681, 2006). These parameters were determined by CompuSyn simulation (available at http://www.combosyn.com).
(§3) CCRF-CEM human T-cell acute lymphoblastic leukemia cells and the corresponding vinblastine-resistant cells (CCRF-CEM/VBL100) were cultured at an initial density of 5×10^4 cells per milliliter. The cultured cells were maintained in a 5% CO2-humidified atmosphere at 37° C. in RPMI medium 1640 (GIBCO/BRL) containing penicillin (100 units/mL), streptomycin (100 μg/mL, GIBCO/BRL), and 10% heat-inactivated fetal bovine serum. The cytotoxicity of each Compound of the invention was measured using the 2,3-bis(2-methoxy-4-nitro-5-sulfophenyl)-5-[(phenylamino)carbonyl]-2H-tetrazolium hydroxide (XTT) microculture method as described in Scudiero et al., Cancer Res., 48:4827 (1988), the contents of which are hereby incorporated by reference in their entirety.
(§4) Absorbance was measured by Powerwave XS microplate spectrophotometer.

[3] = test system: CCRF-CEM subline resistant to TAXOL; test: In vitro cytotoxicity against TAXOL-resistant CCRF-CEM subline; type: cell-based, human; settings: for IC50: Homo sapiens, CCRF-CEM
Description: as §2, §4

[4] = test system: CCRF-CEM human T-cell acute lymphoblastic leukemia cells; test: In vitro cytotoxicity against CCRF-CEM (XTT / CCK-8 tetrazolium assay, 72 hr); settings: for IC50: Homo sapiens, CCRF-CEM
Description: as §1, §2, §3, §4

[5] = Table 3D, CCK-8, 72-hr incubation, read-out: IC50 CCRF-CEM/TAXOL
[6] = 72 h, read-out: IC50 CCRF-CEM, Table 3D, CCK-8, 72-hr incubation
[7] = read-out: IC50 (in μM), cytotoxic potency against cancer cell line growth in vitro, Table 3C, cell line not given
[8] = 72 h, Table 3D, CCK-8, 72-hr incubation, read-out: IC50 CCRF-CEM/Vinblastine
[9] = Table 3E, read-out: IC50 CCRF-CEM/TAXOL
[10] = read-out: IC50 CCRF-CEM, Table 3E
[11] = Table 3E, read-out: IC50 CCRF-CEM/Vinblastine

SMILES	IC50 [3, 5] [µM]	IC50 [4, 6] [µM]	IC50 [4, 7] [µM]	IC50 [2, 8] [µM]	IC50 [3, 9] [µM]	IC50 [4, 10] [µM]	IC50 [2, 11] [µM]	other results
C=CC(=O)C#CC#CC[C@H]1OC(C)(C)O[C@@H]1CCCCCCC [Compound (C)]								IC50 ([1]; Aug. 22, 2003 (Stored), same solution kept at −20° C. in DMSO, read-out: IC50 in μM CCRF-CEM): 2.68 µM; IC50 ([1]; Aug. 22, 2003 (Stored), same solution kept at −20° C. in DMSO, read-out: IC50 in μM CCRF-CEM/VBL): 3.9 µM; IC50 ([1]; Jul. 25, 2003 (Fresh), read-out: IC50 in μM CCRF-CEM): 0.404 µM; IC50 ([1]; Jul. 25, 2003 (Fresh), read-out: IC50 in μM CCRF-CEM/VBL): 0.7 µM; fold resistance in brackets (IC50 CCRF-CEM/VBL vs CCRF-CEM) ([2]; Table 3): 1.19 x
C=C[C@H](C#CC#CC[C@H]1OC(C)(C)O[C@@H]1CCCCCCC)OC(=O)/C=C/c1ccccc1 [Compound (E)]	156	642	642	106				fold of cross-resistance (CCRF-CEM/TAXOL vs parent cell line) ([3]; Table 3D, given as x or -fold): 0.24 fold; anti-cancer activity in the in vitro cytotoxicity assay [4]: active against cancer; fold of cross-resistance (CCRF-CEM/Vinblastine vs parent cell line) ([2]; Table 3D, given as x or -fold): 0.17 fold
C=C[C@H](C#CC#CC[C@H]1OC(C)(C)O[C@@H]1CCCCCCC)OC(C)=O [Compound (F)]	7.58	3.88 ± 0.85	3.88	8.56				
C=CC(C)(O)C#CC#CC[C@H]1OC(C)(C)O[C@@H]1CCCCCCC (stereo partly drawn) [Compound (G)]	6.16	3.77 ± 0.48	3.77	7.3				
C=C[C@H](C#CC#CC[C@H]1OC(C)(C)O[C@@H]1CCCCCCC)OC [Compound (H)]	15.1	21.6	21.6	26.6				
CCCCCCC[C@H]1OC(C)(C)O[C@@H]1CC#CC#C/C=C/CO [Compound (L)]	2.91	1.92 ± 0.16	1.92	2.76				
CCCCCCC[C@H]1OC(C)(C)O[C@@H]1Cc1ccc(C=O)cc1 [Compound (N), 4-(((4R,5R)-5-heptyl-2,2-dimethyl-1,3-dioxolan-4-yl)methyl)benzaldehyde]					19.4	12.6	13.6	
C=CC(O)c1ccc(C[C@H]2OC(C)(C)O[C@@H]2CCCCCCC)cc1 (stereo partly drawn) [Compound (O), 1-(4-(((4R,5R)-5-heptyl-2,2-dimethyl-1,3-dioxolan-4-yl)methyl)phenyl)prop-2-en-1-ol]					10.3	5.25	6.52	
CCCCCCC[C@H]1OC(C)(C)O[C@@H]1Cc1ccc(C(O)CC)cc1 (stereo partly drawn) [Compound (P), 1-(4-(((4R,5R)-5-heptyl-2,2-dimethyl-1,3-dioxolan-4-yl)methyl)phenyl)propan-1-ol]					11.9	4.18	5.14	
CC[C@]1(O)C[C@@H]2CN(CCc3c([nH]c4ccccc34)[C@@](C(=O)OC)(c3cc4c(cc3OC)N(C)[C@H]3[C@@](O)(C(=O)OC)[C@H](OC(C)=O)[C@]5(CC)C=CCN6CC[C@]43[C@@H]65)C2)C1 [Vinblastine]								IC50 ([3]; Table 3A-2, CCK-8, 72-hr exposure, read-out: CCRF-CEM/TAXOL (IC50 in μM)): 0.282 µM; Fold of resistance (IC50 ratio CCRF-CEM/TAXOL vs CCRF-CEM) ([3]; Table 3A-2): 256 fold; IC50 ([4]; 72 h, read-out: CCRF-CEM (IC50 in μM), Table 3A-2, CCK-8, 72-hr exposure): 0.0011 µM; IC50 ([2]; 72 h, Table 3A-2, CCK-8, 72-hr exposure, read-out: CCRF-CEM/VBL (IC50 in μM)): 0.669 µM; Fold of resistance (IC50 ratio CCRF-CEM/VBL vs CCRF-CEM) ([2]; Table 3A-2): 608 fold

Source: patent publication US8859615B2, “Compounds, compositions and methods for reducing toxicity and treating or preventing diseases” (priority 2008, dated 2014)
